Data taken from US20120149735A1, “1,4-Dihydropyridine Derivatives and Their Uses” (CENTRE HOSPITALIER REGIONAL UNIVERSITAIRE DE LILLE, priority 2009, published 2012).
Like-named read-outs stand apart in the source and are kept apart here.

How the values were obtained:
hCB2 receptor = target: T1, hCB2 receptor (Homo sapiens, UniProt P34972); experiment: [35S]-GTPγS binding assay (CB2 functional activity assay); type: biochemical; conditions: for EC50: [35S]-GTPγS binding, hCB2
T1 construct: purchased PerkinElmer (Belgium)
Procedure: The Emax value is determined by a CB2 functional activity assay (19, 20).
[^35S]-GTPγS binding Assays
[^35S]-GTPγS (1173 Ci/mmol) was purchased from Amersham (Roosendaal, The Netherlands). The binding experiments were performed at 30° C. in plastic tubes containing 40 μg protein in 0.5 mL (final volume) of binding buffer (50 mM Tris-HCl, 3 mM MgCl2, 1 mM EDTA, 100 mM NaCl, 0.1% bovine serum albumin, pH 7.4) supplemented with 20 μM GDP.
The assay was initiated by the addition of [^35S]-GTPγS (0.05 nM, final concentration). The tubes were incubated for 1 h. The incubations were terminated by the addition of 5 mL ice-cold washing buffer (50 mM Tris-HCl, 3 mM MgCl2, 1 mM EDTA, 100 mM NaCl). The suspension was immediately filtered through GF/B filters using a 48-well Brandell cell harvester and washed twice with the same ice-cold buffer. The radioactivity on the filters was counted as mentioned above. Assays were performed in triplicate.
(§1) IC50 and EC50 values were determined by non-linear regression analysis performed using the GraphPad prism 4.0 program (GraphPad Software, San Diego). The Ki values (expressed as pKi) were calculated based on the Cheng-Prusoff equation: Ki=IC50/(1+L/Kd). Statistical signification of [^35S]-GTPγS assay results was assessed using an one-way ANOVA followed by a Dunett post-test.

[1] = target: T2, hCB2 cannabinoid receptor (Homo sapiens, UniProt P34972); experiment: Competition binding assay, hCB2 membranes, [3H]-CP-55,940
T2 construct: purchased PerkinElmer (Belgium)
Procedure: hCB1 and hCB2 membranes were purchased from PerkinElmer (Belgium). […] Glass fiber filters were purchased from Whatman (Maidstone, U.K.), while Aqualuma was from PerkinElmer (Schaesberg, The Netherlands). Stock solutions of the compounds were prepared in DMSO and further diluted […] with the binding buffer to the desired concentration. Final DMSO concentrations in the assay were less than 0.1%.
The test compounds were present at varying concentrations and the non-specific binding was determined in the presence of 10 μM HU-210. After 1 h the incubation was stopped and the solutions were rapidly filtered through 0.5% PEI pretreated GF/B glass fiber filters on a M-48T Brandell cell harvester and washed twice with 5 mL ice-cold binding buffer without serum albumin. […] Assays were performed at least in triplicate.
as §1

TNBS-induced colitis = TNBS-induced colitis in mice; type: in vivo, C57B16 mice; conditions: for MPO activity in colon (neutrophils content): TNBS only 20±5; for TNF-alpha mRNA expression in colon: TNBS only 26±8; for IL-1beta mRNA expression in colon: TNBS only 1610±1041; for colitis macroscopic score (Wallace criteria, scale 0 to 10): intraperitoneally once daily from 3 days before TNBS, killed 3 days after TNBS, TNBS only 3.1±0.3; for histological score (Ameho criteria, scale 0 to 6): intraperitoneally once daily, TNBS only 3.7±1
[2] = CB2 functional activity assay, basal = 100%, read-out: Emax, bound stated
[3] = percentage of stimulation of [35S]-GTPγS binding, basal value set at 100%, read-out: Functional activity at CB2 EMax
[4] = hCB2 membranes, [3H]-CP-55,940 (1 nM), 30° C., 1 h, read-out: Ki CB2
[5] = read-out: binding affinity (Ki) at the CB2 receptor

T1 sequence (P34972 whole entry): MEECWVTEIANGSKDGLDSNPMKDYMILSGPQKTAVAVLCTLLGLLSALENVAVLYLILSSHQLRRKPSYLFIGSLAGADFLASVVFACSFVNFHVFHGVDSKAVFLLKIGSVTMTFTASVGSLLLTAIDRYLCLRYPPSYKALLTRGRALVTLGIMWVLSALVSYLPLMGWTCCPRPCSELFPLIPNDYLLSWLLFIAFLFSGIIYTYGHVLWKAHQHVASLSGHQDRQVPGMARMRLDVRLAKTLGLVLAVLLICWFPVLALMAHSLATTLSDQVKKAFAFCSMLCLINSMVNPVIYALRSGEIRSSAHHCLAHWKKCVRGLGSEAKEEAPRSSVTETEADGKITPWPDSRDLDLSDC
T2 sequence (P34972 whole entry): as above

Compound: CCCCCn1cc(C(=O)NC2CCCc3ccccc32)c(=O)cc1-c1ccccc1 (racemic) [Compound 14, (R,S)-4-oxo-1-pentyl-6-phenyl-N-3-(1-(1,2,3,4-tetrahydronaphthyl))-1,4-dihydropyridine-3-carboxamide]
- functional character at the CB2 receptor (agonist / inverse agonist) (hCB2 receptor; CB2 functional activity assay): inverse agonists
- Emax (hCB2 receptor; [2]): < 62%
- EC50 (hCB2 receptor): 5.7 ± 0.7 nM
- Emax (hCB2 receptor; [3]): 40 ± 1%
- melting point: 139 °C
- Ki [1, 4]: 30.9 ± 3.3 nM

Compound: CCn1cc(C(=O)NC(C)C23CC4CC(CC(C4)C2)C3)c(=O)cc1-c1ccccc1 [Compound 5, (R,S)—N-3-(1-(1-Adamantyl)ethyl)-1-ethyl-4-oxo-6-phenyl-1,4-dihydropyridine-3-carboxamide]
- melting point: 224 °C
- Ki [1, 4]: 414 ± 61 nM
- Ki [1, 5]: < 500 nM

Compound: CCCCCn1cc(C(=O)NC(C)C23CC4CC(CC(C4)C2)C3)c(=O)cc1-c1ccccc1 [Compound 6, (R,S)—N-3-(1-(1-Adamantyl)ethyl)-4-oxo-1-pentyl-6-phenyl-1,4-dihydropyridine-3-carboxamide]
- functional character at the CB2 receptor (agonist / inverse agonist) (hCB2 receptor; CB2 functional activity assay): inverse agonists
- Emax (hCB2 receptor; [2]): < 62%
- EC50 (hCB2 receptor): 6.5 ± 1.5 nM
- Emax (hCB2 receptor; [3]): 46 ± 3%
- melting point: 169 °C
- Ki [1, 4]: 14.3 ± 2.1 nM
- Ki [1, 5]: < 500 nM

Compound: CC(NC(=O)c1cn(-c2ccccc2)c(-c2ccccc2)cc1=O)C12CC3CC(CC(C3)C1)C2 [Compound 7, (R,S)—N-3-(1-(1-Adamantyl)ethyl)-1,6-diphenyl-4-oxo-1,4-dihydropyridine-3-carboxamide]
- melting point: > 250 °C
- Ki [1, 5]: > 500 nM

Compound: CCCCCn1cc(C(=O)NCC23CC4CC(CC(C4)C2)C3)c(=O)cc1-c1ccccc1 [Compound 8, N3-((1-Adamantyl)methyl)-4-oxo-1-pentyl-6-phenyl-1,4-dihydropyridine-3-carboxamide]
- melting point: 154 °C
- Ki [1, 4]: 23.3 ± 1.9 nM

Compound: CCCCCn1cc(C(=O)NC23CC4CC(C)(CC(C)(C4)C2)C3)c(=O)cc1-c1ccccc1 [Compound 9, N3-(1-(3,5-Dimethyl)adamantyl)-4-oxo-1-pentyl-6-phenyl-1,4-dihydropyridine-3-carboxamide]
- functional character at the CB2 receptor (agonist / inverse agonist) (hCB2 receptor; CB2 functional activity assay): inverse agonists
- Emax (hCB2 receptor; [2]): < 62%
- EC50 (hCB2 receptor): 5.8 ± 1.1 nM
- Emax (hCB2 receptor; [3]): 41 ± 2%
- melting point: 133 °C
- Ki [1, 4]: 6.6 ± 0.7 nM

Compound: CCCCn1cc(C(=O)NC23CC4CC(CC(C4)C2)C3)c(=O)cc1-c1ccccc1 [Compound 10, N3-(1-Adamantyl)-1-butyl-4-oxo-6-phenyl-1,4-dihydropyridine-3-carboxamide]
- melting point: 146 °C
- Ki [1, 4]: 18.4 ± 1.3 nM

Compound: CCCCCn1cc(C(=O)NC23CC4CC(CC(C4)C2)C3)c(=O)cc1-c1ccccc1 [Compound 11, N3-(1-Adamantyl)-4-oxo-1-pentyl-6-phenyl-1,4-dihydropyridine-3-carboxamide]
- melting point: 145 °C
- Ki [1, 4]: 4 ± 0.4 nM

Compound: CCCCCCn1cc(C(=O)NC23CC4CC(CC(C4)C2)C3)c(=O)cc1-c1ccccc1 [Compound 12, N3-(1-Adamantyl)-1-hexyl-4-oxo-6-phenyl-1,4-dihydropyridine-3-carboxamide]
- melting point: 167 °C
- Ki [1, 4]: 13.5 ± 0.9 nM

Compound: CCCCCn1cc(C(=O)NC2CCCCC2)c(=O)cc1-c1ccccc1 [Compound 13, N3-(Cyclohexyl)-4-oxo-1-pentyl-6-phenyl-1,4-dihydropyridine-3-carboxamide]
- functional character at the CB2 receptor (agonist / inverse agonist) (hCB2 receptor; CB2 functional activity assay): inverse agonists
- Emax (hCB2 receptor; [2]): < 62%
- EC50 (hCB2 receptor): 1.9 ± 0.5 nM
- Emax (hCB2 receptor; [3]): 62 ± 2%
- melting point: 120 °C
- Ki [1, 4]: 10.6 ± 1.1 nM

Compound: CCCCCn1cc(C(=O)N[C@@H]2CCCc3ccccc32)c(=O)cc1-c1ccccc1 [Compound 15, (R)-4-oxo-1-pentyl-6-phenyl-N-3-(1-(1,2,3,4-tetrahydronaphthyl))-1,4-dihydropyridine-3-carboxamide]
- functional character at the CB2 receptor (agonist / inverse agonist) (hCB2 receptor; CB2 functional activity assay): inverse agonists
- Emax (hCB2 receptor; [2]): < 62%
- EC50 (hCB2 receptor): 1.9 ± 0.4 nM
- Emax (hCB2 receptor; [3]): 42 ± 2%
- melting point: 139 °C
- Ki [1, 4]: 10.1 ± 1.1 nM

Compound: CCCCCn1cc(C(=O)N[C@H]2CCCc3ccccc32)c(=O)cc1-c1ccccc1 [Compound 16, (S)-4-oxo-1-pentyl-6-phenyl-N-3-(1-(1,2,3,4-tetrahydronaphthyl))-1,4-dihydropyridine-3-carboxamide]
- functional character at the CB2 receptor (agonist / inverse agonist) (hCB2 receptor; CB2 functional activity assay): inverse agonists
- Emax (hCB2 receptor; [2]): < 62%
- EC50 (hCB2 receptor): 60 ± 16 nM
- Emax (hCB2 receptor; [3]): 48 ± 3%
- melting point: 139 °C
- Ki [1, 4]: 369 ± 41 nM

Compound: CCCCCn1cc(C(=O)NN2CCCCC2)c(=O)cc1-c1ccccc1 [Compound 17, 4-oxo-1-pentyl-6-phenyl-N-3-(piperidin-1-yl)-1,4-dihydropyridine-3-carboxamide]
- functional character at the CB2 receptor (agonist / inverse agonist) (hCB2 receptor; CB2 functional activity assay): inverse agonists
- Emax (hCB2 receptor; [2]): < 62%
- EC50 (hCB2 receptor): 26 ± 6 nM
- Emax (hCB2 receptor; [3]): 48 ± 2%
- melting point: 122 °C
- Ki [1, 4]: 92 ± 7 nM

Compound: CCCCCn1cc(C(=O)NC23CC4CC(CC(C4)C2)C3)c(=O)cc1-c1ccc(Cl)cc1 [Compound 18, N3-(1-Adamantyl)-6-(4-chlorophenyl)-1-pentyl-4-oxo-1,4-dihydropyridine-3-carboxamide]
- melting point: 190 °C
- Ki [1, 4]: 79 ± 7 nM

Compound: CCCCCn1cc(C(=O)NC2CCCCC2)c(=O)cc1-c1ccc(Cl)cc1 [Compound 19, 6-(4-Chlorophenyl)-N-3-cyclohexyl-4-oxo-1-pentyl-1,4-dihydropyridine-3-carboxamide]
- functional character at the CB2 receptor (agonist / inverse agonist) (hCB2 receptor; CB2 functional activity assay): inverse agonists
- Emax (hCB2 receptor; [2]): < 62%
- EC50 (hCB2 receptor): 22 ± 4 nM
- Emax (hCB2 receptor; [3]): 39 ± 2%
- melting point: 157 °C
- Ki [1, 4]: 78 ± 9 nM

Compound: CCCCCn1cc(C(=O)NC23CC4CC(CC(C4)C2)C3)c(=O)cc1C(C)(C)C [Compound 20, N3-(1-Adamantyl)-6-tert-butyl-1-pentyl-4-oxo-1,4-dihydropyridine-3-carboxamide]
- functional character at the CB2 receptor (agonist / inverse agonist) (hCB2 receptor; CB2 functional activity assay): agonists
- Emax (hCB2 receptor; [2]): > 135%
- EC50 (hCB2 receptor): 12.2 ± 2.5 nM
- Emax (hCB2 receptor; [3]): 212 ± 3%
- MPO activity in colon (neutrophils content) (TNBS-induced colitis): 10±3
- TNF-alpha mRNA expression in colon (TNBS-induced colitis): 6±1
- IL-1beta mRNA expression in colon (TNBS-induced colitis): 22±11
- colitis macroscopic score (Wallace criteria, scale 0 to 10) (TNBS-induced colitis): 0.8±0.4
- histological score (Ameho criteria, scale 0 to 6) (TNBS-induced colitis): 1.8±0.6
- decrease in colitis macroscopic scores (TNBS-induced colitis; vs TNBS only): 74%
- decrease of IL-1beta level in colon (TNBS-induced colitis; vs TNBS only): 99%
- decrease of MPO activity (TNBS-induced colitis; vs TNBS only): 50%
- decrease of TNF-alpha level in colon (TNBS-induced colitis; vs TNBS only): 79%
- inhibition of colitis microscopic score (TNBS-induced colitis; vs TNBS only): 51%
- Ki [1, 4]: 29 ± 3 nM

Compound: CCCCCn1cc(C(=O)NC2CCCCC2)c(=O)cc1C(C)(C)C [Compound 21, N3-(Cyclohexyl)-6-tert-butyl-1-pentyl-4-oxo-1,4-dihydropyridine-3-carboxamide]
- melting point: 91 °C
- Ki [1, 4]: 29 ± 3 nM

Compound: CCCCCn1cc(C(=O)NC23CC4CC(CC(C4)C2)C3)c(=O)cc1C [Compound 38, N3-(1-Adamantyl)-6-methyl-4-oxo-1-pentyl-1,4-dihydropyridine-3-carboxamide]
- functional character at the CB2 receptor (agonist / inverse agonist) (hCB2 receptor; CB2 functional activity assay): agonists
- Emax (hCB2 receptor; [2]): > 135%
- EC50 (hCB2 receptor): 5.5 ± 1.1 nM
- Emax (hCB2 receptor; [3]): 148 ± 2%
- MPO activity in colon (neutrophils content) (TNBS-induced colitis): 14±4
- TNF-alpha mRNA expression in colon (TNBS-induced colitis): 18±4
- IL-1beta mRNA expression in colon (TNBS-induced colitis): 385±192
- colitis macroscopic score (Wallace criteria, scale 0 to 10) (TNBS-induced colitis): 1.8±0.7
- histological score (Ameho criteria, scale 0 to 6) (TNBS-induced colitis): 2.5±0.8
- decrease in colitis macroscopic scores (TNBS-induced colitis; vs TNBS only): 42%
- decrease of MPO activity (TNBS-induced colitis; vs TNBS only): 34%
- melting point: 195 °C
- Ki ([1]; binding affinity (Ki) at the CB2 receptor): < 500 nM
- Ki [1, 4]: 20 ± 3 nM

Compound: CCCCCn1cc(C(=O)NC23CC4CC(CC(C4)C2)C3)c(=O)c(I)c1C [Compound 52, N3-(1-Adamantyl)-5-iodo-6-methyl-4-oxo-1-pentyl-1,4-dihydropyridine-3-carboxamide]
- Ki [1, 4]: 9 ± 1.6 nM
- Ki [1, 5]: < 500 nM

Compound: JWH-133 [reference compound]
- colitis macroscopic score (Wallace criteria, scale 0 to 10) (TNBS-induced colitis): 2.1±0.6
- histological score (Ameho criteria, scale 0 to 6) (TNBS-induced colitis): induced a decrease of histological scores
- decrease in colitis macroscopic scores (TNBS-induced colitis; vs TNBS only): 34%
